Publication PMC6271856, “Leishmanicidal Evaluation of Tetrahydroprotoberberine and Spirocyclic Erythrina-Alkaloids” (Molecules, 2014)
In brackets after ≈: the same amount, converted by molar mass. Read-outs that look alike come from different tables or passages of the source.

How the values were obtained:
[1] = system: Leishmania amazonensis promastigote forms; experiment: Leishmanicidal MTT assay on promastigote forms; type: cell-based; conditions: for IC50: Leishmania amazonensis, read-out: L. amazonensis IC50
[2] = Macrophages in vitro cytotoxic assay (MTT); conditions: mouse, J774A.1 macrophage cells
in vitro = conditions: mouse
[3] = promastigote forms, 48 h treatment, MTT

Compound `C[C@@H]1[C@H](O)[C@@H](C)/C=C/C=C/C=C/C=C/C=C/C=C/C=C/[C@H](O[C@@H]2O[C@H](C)[C@@H](O)[C@H](N)[C@@H]2O)C[C@@H]2O[C@](O)(C[C@@H](O)C[C@@H](O)[C@H](O)CC[C@@H](O)C[C@@H](O)CC(=O)O[C@H]1C)C[C@H](O)[C@H]2C(=O)O` [Amphotericin B, reference compound] has an IC50 [1, 3] of 0.2 µg/mL (≈ 0.216 µM).

For `COc1ccc2c(c1O)[C@@H]1Cc3cc4c(cc3CN1CC2)OCO4` [Compound 1], the “SI (Selectivity Index = CC50 drug/IC50 drug)” value ([1]; CC50 J774 macrophages / IC50 L. amazonensis promastigotes) was 284.55, the IC50 [1, 3] was 0.18 µg/mL (≈ 0.553 µM) and the CC50 at 48 h [2] was 51.2 µg/mL (≈ 157 µM).

For `COc1cc2c(cc1OC)CN1CCc3ccc(OC)c(O)c3[C@@H]1C2` [Compound 2], the IC50 [1, 3] was over 1000 µg/mL and the CC50 at 48 h [2] was 96.6 µg/mL (≈ 283 µM).

In the case of `CO[C@H]1C=CC2=CCN3CCc4cc5c(cc4[C@]23C1)OCO5` [Compound 3, erythraline], the “SI (Selectivity Index = CC50 drug/IC50 drug)” value [1] is reported as 1.06, the IC50 ([1]; 48 h) is reported as 65.3 µg/mL (≈ 220 µM) and the CC50 (in vitro) is reported as 69.3 µg/mL (≈ 233 µM).

`COC1C=CC2=CC(=O)N3CCc4cc5c(cc4C23C1)OCO5` (stereo not drawn) [Compound 4, 8-oxoerythraline] gave an IC50 [1, 3] of over 1000 µg/mL and a CC50 (in vitro) of over 1000 µg/mL.

With `COC1C=CC2=CC(=O)N3C=Cc4cc5c(cc4C23C1)OCO5` (stereo not drawn) [Compound 6, Crystamidine] the “SI (Selectivity Index = CC50 drug/IC50 drug)” value [1] was 0.82, the IC50 [1, 3] was 71.5 µg/mL (≈ 231 µM) and the CC50 (in vitro) was 59 µg/mL (≈ 191 µM).

For `COC1C=CC2=CCN3CC(O)c4cc5c(cc4C23C1)OCO5` (stereo not drawn) [Compound 7, Erythrinine], the “SI (Selectivity Index = CC50 drug/IC50 drug)” value [1] was 1.52, the IC50 ([1]; 48 h) was 39.5 µg/mL (≈ 126 µM) and the CC50 (in vitro) was 60 µg/mL (≈ 191 µM).

For `COc1cc2c(cc1O)[C@]13C[C@@H](OC)C=CC1=CCN3CC2` [Compound 8, Erysovine], the IC50 ([1]; 48 h) was over 1000 µg/mL and the CC50 (in vitro) was over 1000 µg/mL.

In the case of `COc1cc2c(cc1OC)C13CC(OC)C(=O)C=C1CCN3CC2` (stereo not drawn) [Compound 9, Erythratidinone], the IC50 ([1]; 48 h) is reported as over 1000 µg/mL and the CC50 (in vitro) is reported as over 1000 µg/mL.
